Test system: IL-1β production in PMA-differentiated THP-1 cells
Assay: IL-1β production in PMA-differentiated THP-1 cells stimulated with gramicidin (hTHP-1 assay containing 2% fetal bovine serum)
Format: cell-based, human
Conditions: Table B1; 2% fetal bovine serum; class symbols; read-out: hTHP-1 IC50 (Average IC50 of compounds in hTHP-1 assay)
Experimental: Procedure 1: IL-1β Production in PMA-Differentiated THP-1 Cells Stimulated with Gramicidin.
THP-1 cells were purchased from the American Type Culture Collection and sub-cultured according to instructions from the supplier. Cells were cultured in complete RPMI 1640 (containing 10% heat inactivated FBS, penicillin (100 units/ml) and streptomycin (100 μg/ml)), and maintained in log phase prior to experimental setup. Prior to the experiment, compounds were dissolved in dimethyl sulfoxide (DMSO) to generate a 30 mM stock. The compound stock was first pre-diluted in DMSO to 3, 0.34, 0.042 and 0.0083 mM intermediate concentrations and subsequently spotted using Echo550 liquid handler into an empty 384-well assay plate to achieve desired final concentration (e.g. 100, 33, 11, 3.7, 1.2, 0.41, 0.14, 0.046, 0.015, 0.0051, 0.0017 μM). DMSO was backfilled in the plate to achieve a final DMSO assay concentration of 0.37%. The plate was then sealed and stored at room temperature until required.
THP-1 cells were treated with PMA (Phorbol 12-myristate 13-acetate) (20 ng/ml) for 16-18 hours. On the day of the experiment the media was removed and adherent cells were detached with trypsin for 5 minutes. Cells were then harvested, washed with complete RPMI 1640, spun down, and resuspended in RPMI 1640 (containing 2% heat inactivated FBS, penicillin (100 units/ml) and streptomycin (100 μg/ml). The cells were plated in the 384-well assay plate containing the spotted compounds at a density of 50,000 cells/well (final assay volume 50 μl). Cells were incubated with compounds for 1 hour and then stimulated with gramicidin (5 μM) (Enzo) for 2 hours. Plates were then centrifuged at 340 g for 5 min. Cell free supernatant (40 μL) was collected using a 96-channel PlateMaster (Gilson) and the production of IL-1β was evaluated by HTRF (cisbio). The plates were incubated for 18 h at 4° C. and read using the preset HTRF program (donor emission at 620 nm, acceptor emission at 668 nm) of the SpectraMax i3x spectrophotometer (Molecular Devices, software SoftMax 6). A vehicle only control and a dose titration of CRID3 (100-0.0017 μM) were run concurrently with each experiment.
Procedure 2: IL-1β Production in PMA-Differentiated THP-1 Cells Stimulated with Gramicidin.
THP-1 cells were purchased from the American Type Culture Collection and sub-cultured according to instructions from the supplier. Prior to experiments, cells were cultured in complete RPMI 1640 (containing 10% heat inactivated FBS, penicillin (100 units/ml) and streptomycin (100 μg/ml)), and maintained in log phase prior to experimental setup. Prior to the experiment THP-1 were treated with PMA (Phorbol 12-myristate 13-acetate) (20 ng/ml) for 16-18 hours. Compounds were dissolved in dimethyl sulfoxide (DMSO) to generate a 30 mM stock. On the day of the experiment the media was removed and adherent cells were detached with trypsin for 5 minutes. Cells were then harvested, washed with complete RPMI 1640, spun down, resuspended in RPMI 1640 (containing 2% heat inactivated FBS, penicillin (100 units/ml) and streptomycin (100 μg/ml). The cells were plated in a 384-well plate at a density of 50,000 cells/well (final assay volume 50 μl). Compounds were first dissolved in assay medium to obtain a 5× top concentration of 500 μM. 10 step dilutions (1:3) were then undertaken in assay medium containing 1.67% DMSO. 5× compound solutions were added to the culture medium to achieve desired final concentration (e.g. 100, 33, 11, 3.7, 1.2, 0.41, 0.14, 0.046, 0.015, 0.0051, 0.0017 μM). Final DMSO concentration was at 0.37%. Cells were incubated with compounds for 1 hour and then stimulated with gramicidin (5 μM) (Enzo) for 2 hours. Plates were then centrifuged at 340 g for 5 min. Cell free supernatant (40 μL) was collected using a 96-channel PlateMaster (Gilson) and the production of IL-1β was evaluated by HTRF (cisbio). A vehicle only control and a dose titration of CRID3 (100-0.0017 μM) were run concurrently with each experiment. […]

IC50 | SMILES
200 to 1000 nM | CC(C)c1cc(F)cc(C(C)C)c1CC(=O)N=S(N)(=O)c1sc(C(C)(C)O)cc1F (single isomer, unassigned) [Example 51, (R)- or (S)-2-(4-fluoro-2,6-diisopropylphenyl)-N-(3-fluoro-5-(2-hydroxypropan-2-yl)thiophen-2-ylsulfonimidoyl)acetamide]
8 to 40 nM | CC(C)c1cc(F)cc(C2CC2)c1CC(=O)N=S(N)(=O)c1sc(C(C)(C)O)cc1F (single isomer, unassigned) [Example 52, (S)- or (R)-2-(2-cyclopropyl-4-fluoro-6-isopropylphenyl)-N-(3-fluoro-5-(2-hydroxypropan-2-yl)thiophen-2-ylsulfonimidoyl)acetamide]
1000 to 5000 nM | CC(C)c1cc(F)cc(C2CC2)c1CC(=O)N=S(N)(=O)c1sc(C(C)(C)O)cc1F (single isomer, unassigned) [Example 53, (R)- or (S)-2-(2-cyclopropyl-4-fluoro-6-isopropylphenyl)-N-(3-fluoro-5-(2-hydroxypropan-2-yl)thiophen-2-ylsulfonimidoyl)acetamide]
8 to 40 nM | CC(C)c1c(F)c(C#N)cc(C2CC2)c1CC(=O)N=S(N)(=O)c1sc(C(C)(C)O)cc1F (single isomer, unassigned) [Example 54, (S)- or (R)-2-(4-cyano-6-cyclopropyl-3-fluoro-2-isopropylphenyl)-N-(3-fluoro-5-(2-hydroxypropan-2-yl)thiophen-2-ylsulfonimidoyl)acetamide]
1000 to 5000 nM | CC(C)c1c(F)c(C#N)cc(C2CC2)c1CC(=O)N=S(N)(=O)c1sc(C(C)(C)O)cc1F (single isomer, unassigned) [Example 55, (R)- or (S)-2-(4-cyano-6-cyclopropyl-3-fluoro-2-isopropylphenyl)-N-(3-fluoro-5-(2-hydroxypropan-2-yl)thiophen-2-ylsulfonimidoyl)acetamide]
200 to 1000 nM | CC(C)c1cc(Cl)c(F)c(C2CC2)c1CC(=O)N=S(N)(=O)c1sc(C(C)(C)O)cc1F (single isomer, unassigned) [Example 56, (S)- or (R)-2-(4-chloro-2-cyclopropyl-3-fluoro-6-isopropylphenyl)-N-(3-fluoro-5-(2-hydroxypropan-2-yl)thiophen-2-ylsulfonimidoyl)acetamide]
1000 to 5000 nM | CC(C)c1cc(Cl)c(F)c(C2CC2)c1CC(=O)N=S(N)(=O)c1sc(C(C)(C)O)cc1F (single isomer, unassigned) [Example 57, (R)- or (S)-2-(4-chloro-2-cyclopropyl-3-fluoro-6-isopropylphenyl)-N-(3-fluoro-5-(2-hydroxypropan-2-yl)thiophen-2-ylsulfonimidoyl)acetamide]
40 to 200 nM | Cc1nc(C(C)(C)O)sc1S(N)(=O)=NC(=O)Cc1c(C(C)C)cc(C#N)cc1C(C)C (single isomer, unassigned) [Example 60, (S)- or (R)-2-(4-cyano-2,6-diisopropylphenyl)-N-(2-(2-hydroxypropan-2-yl)-4-methylthiazole-5-sulfonimidoyl)acetamide]
5000 to 30000 nM | Cc1nc(C(C)(C)O)sc1S(N)(=O)=NC(=O)Cc1c(C(C)C)cc(C#N)cc1C(C)C (single isomer, unassigned) [Example 61, (R)- or (S)-2-(4-cyano-2,6-diisopropylphenyl)-N-(2-(2-hydroxypropan-2-yl)-4-methylthiazole-5-sulfonimidoyl)acetamide]
200 to 1000 nM | CC(C)c1cc(C#N)cc(C(C)C)c1CC(=O)N=S(N)(=O)c1sc(C(C)(C)O)nc1CO (single isomer, unassigned) [Example 64, N-(amino(4-(hydroxymethyl)-2-(2-hydroxypropan-2-yl)thiazol-5-yl)(oxo)-λ^6-sulfaneylidene)-2-(4-cyano-2,6-diisopropylphenyl)acetamide]
5000 to 30000 nM | CC(C)c1cc(C#N)cc(C(C)C)c1CC(=O)N=S(N)(=O)c1sc(C(C)(C)O)nc1CO (single isomer, unassigned) [Example 65]
200 to 1000 nM | COCc1cc(C(C)C)c(CC(=O)N=S(N)(=O)c2sc(C(C)(C)O)nc2CO)c(C(C)C)c1 (single isomer, unassigned) [Example 68, (S)- or (R)-2-(2,6-diisopropyl-4-(methoxymethyl)phenyl)-N-(4-(hydroxymethyl)-2-(2-hydroxypropan-2-yl)thiazol-5-ylsulfonimidoyl)acetamide]
5000 to 30000 nM | COCc1cc(C(C)C)c(CC(=O)N=S(N)(=O)c2sc(C(C)(C)O)nc2CO)c(C(C)C)c1 (single isomer, unassigned) [Example 69, (R)- or (S)-2-(2,6-diisopropyl-4-(methoxymethyl)phenyl)-N-(4-(hydroxymethyl)-2-(2-hydroxypropan-2-yl)thiazol-5-ylsulfonimidoyl)acetamide]
200 to 1000 nM | CC(C)c1cc(C#N)cc(C2CC2)c1CC(=O)N=S(N)(=O)c1sc(C(C)(C)O)nc1CO (single isomer, unassigned) [Example 70, (S)- or (R)-(4-cyano-2-cyclopropyl-6-isopropylphenyl)-N-(4-(hydroxymethyl)-2-(2-hydroxypropan-2-yl)thiazol-5-ylsulfonimidoyl)acetamide]
5000 to 30000 nM | CC(C)c1cc(C#N)cc(C2CC2)c1CC(=O)N=S(N)(=O)c1sc(C(C)(C)O)nc1CO (single isomer, unassigned) [Example 71, (R)- or (S)-2-(4-cyano-2-cyclopropyl-6-isopropylphenyl)-N-(4-(hydroxymethyi)-2-(2-hydroxypropan-2-yl)thiazol-5-ylsulfonimidoyl)acetamide]
40 to 200 nM | CC(C)c1cc(OC(F)F)cc(C(C)C)c1CC(=O)N=S(N)(=O)c1sc(C(C)(C)O)cc1F (single isomer, unassigned) [Example 76, (S)- or (R)-2-(4-(difluoromethoxy)-2,6-diisopropylphenyl)-N-(3-fluoro-5-(2-hydroxypropan-2-yl)thiophen-2-ylsulfonimidoyl)acetamide]
1000 to 5000 nM | CC(C)c1cc(OC(F)F)cc(C(C)C)c1CC(=O)N=S(N)(=O)c1sc(C(C)(C)O)cc1F (single isomer, unassigned) [Example 77, (R)- or (S)-(4-(difluoromethoxy)-2,6-diisopropylphenyl)-N-(3-fluoro-5-(2-hydroxypropan-2-yl)thiophen-2-ylsulfonimidoyl)acetamide]
200 to 1000 nM | CCc1cc(OC(F)F)cc(C(C)C)c1CC(=O)N=S(N)(=O)c1sc(C(C)(C)O)cc1F (single isomer, unassigned) [Example 78, (S)- or (R)-2-(4-(difluoromethoxy)-2-ethyl-6-isopropylphenyl)-N-(3-fluoro-5-(2-hydroxypropan-2-yl)thiophen-2-ylsulfonimidoyl)acetamide]
5000 to 30000 nM | CCc1cc(OC(F)F)cc(C(C)C)c1CC(=O)N=S(N)(=O)c1sc(C(C)(C)O)cc1F (single isomer, unassigned) [Example 79, (R)- or (S)-2-(4-(difluoromethoxy)-2-ethyl-6-isopropylphenyl)-N-(3-fluoro-5-(2-hydroxypropan-2-yl)thiophen-2-ylsulfonimidoyl)acetamide]
8 to 40 nM | CC(C)c1cc(C(F)F)cc(C(C)C)c1CC(=O)N=S(N)(=O)c1sc(C(C)(C)O)cc1F (single isomer, unassigned) [Example 80, (S)- or (R)-2-(4-(difIuoromethyl)-2,6-diisopropylphenyl)-N-(3-fluoro-5-(2-hydroxypropan-2-yl)thiophen-2-ylsulfonimidoyl)acetamide]

— patent US20230059136A1, “THE COMPOUNDS AND COMPOSITIONS FOR TREATING CONDITIONS ASSOCIATED WITH NLRP ACTIVITY” (Novartis AG, priority 2018, published 2023)
